According to ChEMBL document CHEMBL4002566, “S-substituted 3,5-dinitrophenyl 1,3,4-oxadiazole-2-thiols and tetrazole-5-thiols as highly efficient antitubercular agents” (Eur J Med Chem, 2017):
≈ marks a conversion by molar mass, not a printed value.

Legend:
[1] = system: Mycobacterium tuberculosis; assay: Antimycobacterial activity against Mycobacterium tuberculosis H37Rv expressing GFP after 7 days; type: functional; details: 168 h
[2] = system: Mycobacterium tuberculosis; assay: Antimycobacterial activity against Mycobacterium tuberculosis H37Rv after 7 days by resazurin reduction microplate assay; type: functional; details: 168 h
[3] = system: Mycobacterium tuberculosis; assay: Antimycobacterial activity against Mycobacterium tuberculosis MDR_CHUV by resazurin reduction microplate assay; type: functional
[4] = system: Mycobacterium tuberculosis; assay: Antimycobacterial activity against Mycobacterium tuberculosis by broth microdilution method; type: functional
[5] = system: Mycobacterium tuberculosis; assay: Antimycobacterial activity against Mycobacterium tuberculosis H37Rv by broth microdilution method; type: functional
Mycobacterium avium [6] = assay: Antimycobacterial activity against Mycobacterium avium CNCTC My 330/88 after 21 days by micromethod; type: functional; details: CNCTC My 330/88, 504 h
[7] = system: Mycobacterium tuberculosis; assay: Antimycobacterial activity against Mycobacterium tuberculosis CNCTC My 331/88 after 14 days by micromethod; type: functional; details: CNCTC My 331/88, 336 h
Mycobacterium avium [8] = assay: Antimycobacterial activity against Mycobacterium avium CNCTC My 330/88 after 14 days by micromethod; type: functional; details: CNCTC My 330/88, 336 h
Mycobacterium kansasii [9] = assay: Antimycobacterial activity against Mycobacterium kansasii CNCTC My 235/80 after 14 days by micromethod; type: functional; details: CNCTC My 235/80, 336 h
Mycobacterium kansasii [10] = assay: Antimycobacterial activity against Mycobacterium kansasii 6509/96 clinical isolate after 14 days by micromethod; type: functional; details: 6509/96, 336 h
Candida albicans [11] = assay: Antifungal activity against Candida albicans ATCC 44859 after 24 hrs by broth microdilution method; type: functional; details: ATCC 44859, 24 h
Candida albicans [12] = assay: Antifungal activity against Candida albicans ATCC 44859 after 48 hrs by broth microdilution method; type: functional; details: ATCC 44859, 48 h
Candida tropicalis [13] = assay: Antifungal activity against Candida tropicalis 156 after 24 hrs by broth microdilution method; type: functional; details: Candida tropicalis, 156, 24 h
Candida tropicalis [14] = assay: Antifungal activity against Candida tropicalis 156 after 48 hrs by broth microdilution method; type: functional; details: Candida tropicalis, 156, 48 h
Pichia kudriavzevii [15] = assay: Antifungal activity against Candida krusei E28 after 24 hrs by broth microdilution method; type: functional; details: E28, 24 h
Pichia kudriavzevii [16] = assay: Antifungal activity against Candida krusei E28 after 48 hrs by broth microdilution method; type: functional; details: E28, 48 h
Nakaseomyces glabratus [17] = assay: Antifungal activity against Candida glabrata 20/I after 24 hrs by broth microdilution method; type: functional
Nakaseomyces glabratus [18] = assay: Antifungal activity against Candida glabrata 20/I after 48 hrs by broth microdilution method; type: functional
Trichosporon asahii [19] = assay: Antifungal activity against Trichosporon asahii 1188 after 24 hrs by broth microdilution method; type: functional; details: Trichosporon asahii, 1188, 24 h
Trichosporon asahii [20] = assay: Antifungal activity against Trichosporon asahii 1188 after 48 hrs by broth microdilution method; type: functional; details: Trichosporon asahii, 1188, 48 h
Aspergillus fumigatus [21] = assay: Antifungal activity against Aspergillus fumigatus 231 after 24 hrs by broth microdilution method; type: functional; details: Aspergillus fumigatus, 231, 24 h
Aspergillus fumigatus [22] = assay: Antifungal activity against Aspergillus fumigatus 231 after 48 hrs by broth microdilution method; type: functional; details: Aspergillus fumigatus, 231, 48 h
Lichtheimia corymbifera [23] = assay: Antifungal activity against Absidia corymbifera 272 after 24 hrs by broth microdilution method; type: functional; details: Lichtheimia corymbifera, 272, 24 h
Lichtheimia corymbifera [24] = assay: Antifungal activity against Absidia corymbifera 272 after 48 hrs by broth microdilution method; type: functional; details: Lichtheimia corymbifera, 272, 48 h
[25] = system: Trichophyton mentagrophytes; assay: Antifungal activity against Trichophyton mentagrophytes 445 after 72 hrs by broth microdilution method; type: functional; details: Trichophyton mentagrophytes, 445, 72 h
[26] = system: Trichophyton mentagrophytes; assay: Antifungal activity against Trichophyton mentagrophytes 445 after 120 hrs by broth microdilution method; type: functional; details: Trichophyton mentagrophytes, 445, 120 h
Staphylococcus aureus [27] = assay: Antibacterial activity against Staphylococcus aureus ATCC 6538 after 24 hrs by broth microdilution method; type: functional; details: ATCC 6538, 24 h
Staphylococcus aureus [28] = assay: Antibacterial activity against Staphylococcus aureus ATCC 6538 after 48 hrs by broth microdilution method; type: functional; details: ATCC 6538, 48 h
Staphylococcus aureus [29] = assay: Antibacterial activity against methicillin-resistant Staphylococcus aureus HK5996/08 after 24 hrs by broth microdilution method; type: functional; details: HK5996/08, 24 h
Staphylococcus aureus [30] = assay: Antibacterial activity against methicillin-resistant Staphylococcus aureus HK5996/08 after 48 hrs by broth microdilution method; type: functional; details: HK5996/08, 48 h
[31] = system: Staphylococcus epidermidis; assay: Antibacterial activity against Staphylococcus epidermidis HK6996/08 after 24 hrs by broth microdilution method; type: functional; details: HK6996/08, 24 h
[32] = system: Staphylococcus epidermidis; assay: Antibacterial activity against Staphylococcus epidermidis HK6996/08 after 48 hrs by broth microdilution method; type: functional; details: HK6996/08, 48 h
Enterococcus sp. [33] = assay: Antibacterial activity against Enterococcus sp. HK14365/08 after 24 hrs by broth microdilution method; type: functional; details: HK14365/08, 24 h
Enterococcus sp. [34] = assay: Antibacterial activity against Enterococcus sp. HK14365/08 after 48 hrs by broth microdilution method; type: functional; details: HK14365/08, 48 h
Escherichia coli [35] = assay: Antibacterial activity against Escherichia coli ATCC 8739 after 24 hrs by broth microdilution method; type: functional; details: ATCC 8739, 24 h
Escherichia coli [36] = assay: Antibacterial activity against Escherichia coli ATCC 8739 after 48 hrs by broth microdilution method; type: functional; details: ATCC 8739, 48 h
Klebsiella pneumoniae [37] = assay: Antibacterial activity against Klebsiella pneumoniae HK11750/08 after 24 hrs by broth microdilution method; type: functional; details: HK11750/08, 24 h
Klebsiella pneumoniae [38] = assay: Antibacterial activity against Klebsiella pneumoniae HK11750/08 after 48 hrs by broth microdilution method; type: functional; details: HK11750/08, 48 h
Klebsiella pneumoniae [39] = assay: Antibacterial activity against extended spectrum beta-lactamase producing Klebsiella pneumoniae HK14368/08 after 24 hrs by broth microdilution method; type: functional; details: HK14368/08, 24 h
Klebsiella pneumoniae [40] = assay: Antibacterial activity against extended spectrum beta-lactamase producing Klebsiella pneumoniae HK14368/08 after 48 hrs by broth microdilution method; type: functional; details: HK14368/08, 48 h
Pseudomonas aeruginosa [41] = assay: Antibacterial activity against Pseudomonas aeruginosa ATCC 9027 after 24 hrs by broth microdilution method; type: functional; details: ATCC 9027, 24 h
Pseudomonas aeruginosa [42] = assay: Antibacterial activity against Pseudomonas aeruginosa ATCC 9027 after 48 hrs by broth microdilution method; type: functional; details: ATCC 9027, 48 h
[43] = Cytotoxicity against human HuH7 cells assessed as cell viability at 30 uM after 48 hrs by MTS assay relative to control; type: cell-based, Huh-7; details: read-out: Activity
Huh-7 = assay: Cytotoxicity against human HuH7 cells assessed as cell viability after 48 hrs by MTS assay; type: cell-based; details: Huh-7, 48 h
A-431 = assay: Cytotoxicity against human A431 cells assessed as cell viability after 48 hrs by MTS assay; type: cell-based; details: A-431, 48 h
[44] = Cytotoxicity against human A431 cells assessed as cell viability at 30 uM after 48 hrs by MTS assay relative to control; type: cell-based, A-431; details: read-out: Activity
MDCK = assay: Cytotoxicity against MDCK cells assessed as cell viability after 48 hrs by MTS assay; type: cell-based; details: Canis lupus familiaris
[45] = Cytotoxicity against MDCK cells assessed as cell viability at 30 uM after 48 hrs by MTS assay relative to control; type: cell-based, Canis lupus familiaris; details: dog, read-out: Activity
HepG2 = assay: Cytotoxicity against human HepG2 cells assessed as cell viability after 48 hrs by MTS assay; type: cell-based; details: HepG2, 48 h
[46] = Cytotoxicity against human HepG2 cells assessed as cell viability at 30 uM after 48 hrs by MTS assay relative to control; type: cell-based; details: read-out: Activity
[47] = Selectivity index, ratio of IC50 for human HepG2 cells to MIC for Mycobacterium tuberculosis; type: toxicity; details: read-out: Selectivity Index
[48] = system: Mycobacterium tuberculosis; assay: Antimycobacterial activity against Mycobacterium tuberculosis CNCTC My 331/88 after 21 days by micromethod; type: functional; details: CNCTC My 331/88, 504 h
Mycobacterium kansasii [49] = assay: Antimycobacterial activity against Mycobacterium kansasii CNCTC My 235/80 after 21 days by micromethod; type: functional; details: CNCTC My 235/80, 504 h
Mycobacterium kansasii [50] = assay: Antimycobacterial activity against Mycobacterium kansasii CNCTC My 235/80 after 7 days by micromethod; type: functional; details: CNCTC My 235/80, 168 h
Mycobacterium kansasii [51] = assay: Antimycobacterial activity against Mycobacterium kansasii 6509/96 clinical isolate after 21 days by micromethod; type: functional; details: 6509/96, 504 h
Mycobacterium kansasii [52] = assay: Antimycobacterial activity against Mycobacterium kansasii 6509/96 clinical isolate after 7 days by micromethod; type: functional; details: 6509/96, 168 h
[53] = system: Mycobacterium tuberculosis; assay: Antimycobacterial activity against Mycobacterium tuberculosis after 14 days; type: functional; details: 336 h

Structure (SMILES): COc1ccc(OCCNC(=O)c2cc([N+](=O)[O-])cc([N+](=O)[O-])c2)cc1
- MIC [1]: 0.2 µM (≈ 0.0723 µg/mL)

Structure (SMILES): Cc1nc2cc(Br)cc([N+](=O)[O-])c2nc1-c1ccccc1
- MIC [2]: 3.1 µM (≈ 1.07 µg/mL)

Structure (SMILES): O=c1nc(N2CCN(CC3CCCCC3)CC2)sc2c([N+](=O)[O-])cc(C(F)(F)F)cc12 [MACOZINONE]
- MIC [3]: 0.4 nM (≈ 0.000183 µg/mL)

Structure (SMILES): CCC1Cn2cc([N+](=O)[O-])nc2O1 (stereo not drawn)
- MIC [4]: 0.2 µM (≈ 0.0366 µg/mL)

Structure (SMILES): C[C@H]1COC2(CCN(c3nc(=O)c4cc(C(F)(F)F)cc([N+](=O)[O-])c4s3)CC2)O1 [BTZ-043]
- MIC [5]: 1 nM (≈ 0.000431 µg/mL)

Structure (SMILES): O=[N+]([O-])c1cc(-n2nnnc2SCc2ccc(Cl)cc2)cc([N+](=O)[O-])c1
- MIC (Mycobacterium avium [6]): 16 µM (≈ 6.28 µg/mL)
- MIC [7]: 0.5 µM (≈ 0.196 µg/mL)
- MIC (Mycobacterium avium [8]): 8 µM (≈ 3.14 µg/mL)
- MIC (Mycobacterium kansasii [9]): 2 µM (≈ 0.786 µg/mL)
- MIC (Mycobacterium kansasii [10]): 1 µM (≈ 0.393 µg/mL)
- MIC (Candida albicans [11]): > 500 µM
- MIC (Candida albicans [12]): > 500 µM
- MIC (Candida tropicalis [13]): > 500 µM
- MIC (Candida tropicalis [14]): > 500 µM
- MIC (Pichia kudriavzevii [15]): > 500 µM
- MIC (Pichia kudriavzevii [16]): > 500 µM
- MIC (Nakaseomyces glabratus [17]): > 500 µM
- MIC (Nakaseomyces glabratus [18]): > 500 µM
- MIC (Trichosporon asahii [19]): > 500 µM
- MIC (Trichosporon asahii [20]): > 500 µM
- MIC (Aspergillus fumigatus [21]): > 500 µM
- MIC (Aspergillus fumigatus [22]): > 500 µM
- MIC (Lichtheimia corymbifera [23]): > 500 µM
- MIC (Lichtheimia corymbifera [24]): > 500 µM
- MIC [25]: > 500 µM
- MIC [26]: > 500 µM
- MIC (Staphylococcus aureus [27]): 125 µM (≈ 49.1 µg/mL)
- MIC (Staphylococcus aureus [28]): 125 µM (≈ 49.1 µg/mL)
- MIC (Staphylococcus aureus [29]): 125 µM (≈ 49.1 µg/mL)
- MIC (Staphylococcus aureus [30]): 125 µM (≈ 49.1 µg/mL)
- MIC [31]: 500 µM (≈ 196 µg/mL)
- MIC [32]: 500 µM (≈ 196 µg/mL)
- MIC (Enterococcus sp. [33]): > 500 µM
- MIC (Enterococcus sp. [34]): > 500 µM
- MIC (Escherichia coli [35]): > 500 µM
- MIC (Escherichia coli [36]): > 500 µM
- MIC (Klebsiella pneumoniae [37]): > 500 µM
- MIC (Klebsiella pneumoniae [38]): > 500 µM
- MIC (Klebsiella pneumoniae [39]): > 500 µM
- MIC (Klebsiella pneumoniae [40]): > 500 µM
- MIC (Pseudomonas aeruginosa [41]): > 500 µM
- MIC (Pseudomonas aeruginosa [42]): > 500 µM
- viability at 48 h, 30 µM [43]: 115%
- IC50 (Huh-7): > 30 µM
- IC50 (A-431): > 30 µM
- viability at 48 h, 30 µM [44]: 74%
- IC50 (MDCK): > 30 µM
- viability at 48 h, 30 µM [45]: 85%
- IC50 (HepG2): > 30 µM
- viability at 48 h, 30 µM [46]: 134%
- selectivity ratio [47]: > 60
- MIC [48]: 0.5 µM (≈ 0.196 µg/mL)
- MIC (Mycobacterium kansasii [49]): 4 µM (≈ 1.57 µg/mL)
- MIC (Mycobacterium kansasii [50]): 1 µM (≈ 0.393 µg/mL)
- MIC (Mycobacterium kansasii [51]): 1 µM (≈ 0.393 µg/mL)
- MIC (Mycobacterium kansasii [52]): 0.5 µM (≈ 0.196 µg/mL)

Structure (SMILES): C[C@]1(COc2ccc(N3CCC(Oc4ccc(OC(F)(F)F)cc4)CC3)cc2)Cn2cc([N+](=O)[O-])nc2O1 [DELAMANID]
- MIC [53]: 0.023 µM (≈ 0.0123 µg/mL)

Structure (SMILES): Cn1nc([N+](=O)[O-])nc1Oc1ccc(C(C)(C)C)cc1
- MIC [1]: 0.5 µM (≈ 0.138 µg/mL)
